Laboratory results published in patent US9314029B2, “Control and repellency of mosquitoes” (BEDOUKIAN RESEARCH, INC., priority 2012, dated 2016).

Key:
Assay type in all cases: in vivo
Aedes aegypti [1] = experiment: Toxicity to mosquitoes of treated surface (aluminum foil), 5 min exposure; conditions: 2.5% in ethanol, dried on foil
Procedure: A test was designed to determine if two test samples at 2 concentrations applied to a surface are toxic to mosquitoes. Aluminum foil squares, […] were treated with one of the test samples and after drying were placed on top of large Petri dishes, 6″ in diameter. Inverted polystyrene cups, 3.5″ in diameter and 3″ high, each with a circular hole drilled through the bottom, and the sides and top painted with Fluon, were used as the treatment containers. They were placed on top of the Petri dishes and secured with rubber bands. Mosquitoes were aspirated and gently blown through the drilled hole into the arena. A plastic disc was then placed over the hole. Five replicates of ten female Aedes aegypti were used for the test sample treatment and an additional 5 replicates of 10 mosquitoes were used for solvent control. Mosquitoes were constantly exposed to the dried test material for 5 minutes, after which time they were transferred into clean containers, where they were provided a sucrose solution for nourishment. The formal observations for knockdown were made at 1 and 4 hours. At 24 hours the numbers of live, moribund and dead mosquitoes were counted.

Aedes aegypti [2] = experiment: Repellency on treated membrane-covered blood-filled wells; conditions: 20 min; for Avg % Repellency: relative to control
Procedure: (§1) The invention is illustrated by, but not limited to, the following examples. • Five replicates of 250 adult female mosquitoes each were placed in clear plastic cages with access to five warmed, blood-filled, membrane-covered wells. The mosquitoes were Aedes aegypti unless otherwise noted. Membranes were treated with repellent. Five replicates were tested. Each replicate used a fresh batch of mosquitoes, blood and treated membranes. The number of mosquitoes probing each well was recorded at two minute intervals for 20 minutes. The total numbers of probes on each well were tallied at the end of the observation period and the average percentage repellency relative to the control was calculated for each formulation.

Aedes aegypti [3] = experiment: Human forearm-in-cage test, time to first confirmed bite; conditions: max 8 hours
Procedure: (§2) In addition, human testing was performed to determine the efficacy of compounds from structure (I). Mosquito species used are described in the tables below. Each test subject was exposed to 2 products each test day. The application rate was between 0.65 ml and 1 ml/250 cm^2 for all repellents. The actual amount of repellent used was based upon the amount that provides thorough coverage of the 250 cm^2 treatment area. A repellent was applied using either a micropipette or a syringe minus the needle. The repellents were then evenly spread on the treatment area with a gloved finger. Each test subject's forearms were allowed to air dry for approximately 30 minutes prior to the first exposure. The study coordinator or technician assisted the test subjects in inserting their arms into the test cages containing 200 mosquitoes, taking care not to rub them on the cloth sleeve, to confirm that the insects were biting. If fewer than 10 mosquitoes land on the untreated arm in 60 seconds (all would normally bite), fresh mosquitoes will be added. Typically, the ten (10) landings took place within 10-30 seconds. Both treated arms were inserted into a cage; there were two subjects (4 arms) per cage. The test subjects exposed their treated forearms to the mosquitoes in the test cages for 5 minutes. The subjects then remove their arms from the cages with assistance from the study coordinator or a technician. Exposures of each arm were repeated every 30 minutes until the repellent on that arm was determined to be no longer effective (‘breakdown’) or until 8 hours have elapsed, whichever occurred first. Breakdown occurs when the first confirmed bite is noted. A confirmed bite occurs when a bite is followed by a second bite in the same exposure period or in the next succeeding exposure period. The second bite becomes the confirming bite and the breakdown time is taken as the time of the first bite. The average of two repetitions is given.

Culex quinquefasciatus [4] = experiment: as above; conditions: 10%, max 8 hours
Procedure: as §2

[5] = test system: Anopheles quadrimaculatus; experiment: as above; conditions: 10%, max 8 hours
Procedure: as §2

Aedes aegypti [6] = experiment: as above; conditions: without the use of polymers or other inert ingredients; species not stated
Culex quinquefasciatus [7] = experiment: Repellency on treated membrane-covered blood-filled wells; conditions: 7% in isopropanol, 20 min; for Avg % Repellency: relative to control
Procedure: as §1

CCCCC1CC(=O)C=C(C)C1 (stereo not shown) [3-methyl-5-butyl-2-cyclohexenone]
1 hr knockdown (Aedes aegypti [1]): 100% | 4 hr knockdown (Aedes aegypti [1]): 100% | 24 hr mortality (Aedes aegypti [1]): 88% | Avg # Probes (Aedes aegypti [2]; 5% in isopropanol): 1 | Avg % Repellency (Aedes aegypti [2]; 5% in isopropanol): 97%

CCCCCCCC1CC(=O)C=C(C)C1 (stereo not shown) [3-methyl-5-heptyl-2-cyclohexenone]
1 hr knockdown (Aedes aegypti [1]): 100% | 4 hr knockdown (Aedes aegypti [1]): 100% | 24 hr mortality (Aedes aegypti [1]): 98% | Avg # Probes (Aedes aegypti [2]; 5% in isopropanol): 0 | Avg % Repellency (Aedes aegypti [2]; 5% in isopropanol): 99%

CCCCCCC1CC(C)=CC(O)C1 (stereo not shown) [3-methyl-5-hexyl-2-cyclohexenol]
Avg # Probes (Aedes aegypti [2]; 5% in isopropanol): 1 | Avg % Repellency (Aedes aegypti [2]; 5% in isopropanol): 91%

CCCCCCC1CC(=O)C=C(C)C1 (stereo not shown) [3-methyl-5-hexyl-2-cyclohexenone]
Avg # Probes (Aedes aegypti [2]; 5% in isopropanol): 0 | Avg % Repellency (Aedes aegypti [2]; 5% in isopropanol): 100%

CCN(CC)C(=O)c1cccc(C)c1 [DEET ®, N,N-Diethyl-m-toluamide, reference compound]
Avg # Probes (Aedes aegypti [2]; 4% in isopropanol): 8.4 | Avg % Repellency (Aedes aegypti [2]; 4% in isopropanol): 90.8% | Avg # Probes (Aedes aegypti [2]; 10% in isopropanol): 0.8 | Avg % Repellency (Aedes aegypti [2]; 10% in isopropanol): 98%

CCCCCC1C(O)CCC1CC(=O)OCC (stereo not shown) [Ethyl Dihydrojasmolate]
Avg # Probes (Aedes aegypti [2]; 7% in isopropanol): 0 | Avg % Repellency (Aedes aegypti [2]; 7% in isopropanol): 100%

CCCCCCOC(=O)CC1CCC(=O)C1CCCCC (stereo not shown) [Hexyl Dihydrojamonate]
Avg # Probes (Aedes aegypti [2]; 7% in isopropanol): 30.4 | Avg % Repellency (Aedes aegypti [2]; 7% in isopropanol): 66.1%

CCCCCC1C(O)CCC1CC(=O)OC (stereo not shown) [Methyl Dihydrojasmolate]
Avg # Probes (Aedes aegypti [2]; 4% in isopropanol): 0.6 | Avg % Repellency (Aedes aegypti [2]; 4% in isopropanol): 98.8% | Avg # Probes (Aedes aegypti [2]; 7% in isopropanol): 0 | Avg % Repellency (Aedes aegypti [2]; 7% in isopropanol): 100%

CC1CCC(C(C)(C)O)C(O)C1 (stereo not shown) [PMD, p-Menthane-3,8-diol, reference compound]
Avg # Probes (Aedes aegypti [2]; 7% in isopropanol): 9 | Avg % Repellency (Aedes aegypti [2]; 7% in isopropanol): 79.2% | 100% bite protection time (Aedes aegypti [3]; 5% in isopropanol): 2.75 h | 100% bite protection time (Aedes aegypti [3]; 10% in isopropanol): 6.25 h | 100% bite protection time (Culex quinquefasciatus [4]): 4.25 h | 100% bite protection time [5]: 6.75 h

CCCCCC1C(O)CCC1CC(=O)OCC=C(C)C (stereo not shown) [Prenyl Dihydrojasmolate]
Avg # Probes (Aedes aegypti [2]; 7% in isopropanol): 3.2 | Avg % Repellency (Aedes aegypti [2]; 7% in isopropanol): 92.2%

CCCCCC1C(=O)CCC1CC(=O)OCC=C(C)C (stereo not shown) [Prenyl Dihydrojasmonate]
Avg # Probes (Aedes aegypti [2]; 7% in isopropanol): 2.8 | Avg % Repellency (Aedes aegypti [2]; 7% in isopropanol): 92.6%

CCCCCC1C(=O)CCC1CC(=O)OCCC (stereo not drawn) [Propyl Dihydrojasmonate - high epi, Propyl Dihydrojasmonate]
Avg # Probes (Aedes aegypti [2]; 2.5% in isopropanol): 2 | Avg % Repellency (Aedes aegypti [2]; 2.5% in isopropanol): 95%

CCCCCC1C(=O)CCC1CC(=O)OCCC (stereo not drawn) [Propyl Dihydrojasmonate - low epi, Propyl Dihydrojasmonate]
Avg # Probes (Aedes aegypti [2]; 2.5% in isopropanol): 6 | Avg % Repellency (Aedes aegypti [2]; 2.5% in isopropanol): 85%

CCCCCC1C(=O)CCC1CC(=O)OCCC (stereo not shown) [Propyl Dihydrojasmonate]
prolonged repellency (Aedes aegypti [6]): ≥ 8 h | Avg # Probes (Aedes aegypti [2]; 5% in isopropanol): 4 | Avg % Repellency (Aedes aegypti [2]; 5% in isopropanol): 97% | Avg # Probes (Aedes aegypti [2]; 5% in squalane): 0 | Avg % Repellency (Aedes aegypti [2]; 5% in squalane): 99% | Avg # Probes (Aedes aegypti [2]; 7% in isopropanol): 2.6 | Avg % Repellency (Aedes aegypti [2]; 7% in isopropanol): 95.6% | 100% bite protection time (Aedes aegypti [3]; 15% in isopropanol): <0.5 hr ^ | 100% bite protection time (Aedes aegypti [3]; 30% in isopropanol): 1 h | 100% bite protection time (Aedes aegypti [3]; 30% in squalane): 2.75 h

CCCCCC1C(=O)CCC1CC(C)=O (stereo not shown) [amyl cyclopentanone propanone]
Avg # Probes (Aedes aegypti [2]; 7% in isopropanol): 0 | Avg % Repellency (Aedes aegypti [2]; 7% in isopropanol): 100%

CCCCCCCC1CCCC(=O)O1 (stereo not shown) [delta-dodecalactone]
Avg # Probes (Aedes aegypti [2]; 7% in isopropanol): 0 | Avg % Repellency (Aedes aegypti [2]; 7% in isopropanol): 100%

CCCCCCCCCC1CCCC(=O)O1 (stereo not shown) [delta-tetradecalactone]
Avg # Probes (Aedes aegypti [2]; 7% in isopropanol): 1.6 | Avg % Repellency (Aedes aegypti [2]; 7% in isopropanol): 97.3%

CCCCCC1C(O)CCC1CCO (stereo not shown) [dihydrojasmindiol]
Avg # Probes (Aedes aegypti [2]; 7% in isopropanol): 7.2 | Avg % Repellency (Aedes aegypti [2]; 7% in isopropanol): 84.3%

CCCCCCCCC1(C)CCC(=O)O1 (stereo not shown) [gamma Methyl Dodecalactone]
Avg # Probes (Aedes aegypti [2]; 5% in isopropanol): 1 | Avg % Repellency (Aedes aegypti [2]; 5% in isopropanol): 98%

CCCCCCCCCC1(C)CCC(=O)O1 (stereo not shown) [gamma Methyl Tridecalactone]
Avg # Probes (Aedes aegypti [2]; 5% in isopropanol): 4 | Avg % Repellency (Aedes aegypti [2]; 5% in isopropanol): 96%

CCCCCCCCC1CCC(=O)O1 (stereo not shown) [gamma-dodecalactone]
Avg # Probes (Aedes aegypti [2]; 7% in isopropanol): 0 | Avg % Repellency (Aedes aegypti [2]; 7% in isopropanol): 100% | Avg # Probes (Culex quinquefasciatus [7]): 0 | Avg % Repellency (Culex quinquefasciatus [7]): 100% | 100% bite protection time (Aedes aegypti [3]; 10% in isopropanol): 1.25 h

CCCCCC1CCC(=O)O1 (stereo not shown) [gamma-nonalactone]
Avg # Probes (Aedes aegypti [2]; 7% in isopropanol): 20.4 | Avg % Repellency (Aedes aegypti [2]; 7% in isopropanol): 77.1%

CCCCCCCCCCC1CCC(=O)O1 (stereo not shown) [gamma-tetradecalactone]
Avg # Probes (Aedes aegypti [2]; 7% in isopropanol): 0.8 | Avg % Repellency (Aedes aegypti [2]; 7% in isopropanol): 98.9% | 100% bite protection time (Aedes aegypti [3]; 15% in isopropanol): 0.5 hr^

CCCCCCCCCC1CCC(=O)O1 (stereo not shown) [gamma-tridecalactone]
Avg # Probes (Aedes aegypti [2]; 5% in isopropanol): 3.1 | Avg % Repellency (Aedes aegypti [2]; 5% in isopropanol): 94.4% | Avg # Probes (Aedes aegypti [2]; 7% in isopropanol): 1.8 | Avg % Repellency (Aedes aegypti [2]; 7% in isopropanol): 97.5% | 100% bite protection time (Aedes aegypti [3]; 30% in isopropanol): 1 h

CCC(C)=CCCC(C)=CCC1CCCC1O (stereo not shown) [methyl apritol]
Avg # Probes (Aedes aegypti [2]; 7% in isopropanol): 6.6 | Avg % Repellency (Aedes aegypti [2]; 7% in isopropanol): 91.9% | Avg # Probes (Aedes aegypti [2]; 10% in isopropanol): 6.8 | Avg % Repellency (Aedes aegypti [2]; 10% in isopropanol): 89.2%

CC/C(C)=C/CC/C(C)=C/CC1CCCC1=O (stereo not shown) [methyl apritone]
Avg # Probes (Aedes aegypti [2]; 7% in isopropanol): 7.6 | Avg % Repellency (Aedes aegypti [2]; 7% in isopropanol): 90.4% | Avg # Probes (Aedes aegypti [2]; 10% in isopropanol): 3.6 | Avg % Repellency (Aedes aegypti [2]; 10% in isopropanol): 93.9% | Avg # Probes (Culex quinquefasciatus [7]): 0 | Avg % Repellency (Culex quinquefasciatus [7]): 100% | 100% bite protection time (Aedes aegypti [3]; 10% in isopropanol): <0.5 hr ^

CCCCCC1C(=O)CCC1CC(=O)N(CC)CC (stereo not shown) [methyl dihydrojasmonate amide]
Avg # Probes (Aedes aegypti [2]; 2.5% in isopropanol): 18.6 | Avg % Repellency (Aedes aegypti [2]; 2.5% in isopropanol): 55% | Avg # Probes (Aedes aegypti [2]; 5% in isopropanol): 6.8 | Avg % Repellency (Aedes aegypti [2]; 5% in isopropanol): 90.1%

CC(C)CCCC(C)CCC1CCCC1=O (stereo not shown) [tetrahydroapritone]
Avg # Probes (Aedes aegypti [2]; 7% in isopropanol): 3.8 | Avg % Repellency (Aedes aegypti [2]; 7% in isopropanol): 93.7%

CCC(C)CCCC(C)CCC1CCCC1=O (stereo not shown) [tetrahydromethyl apritone]
Avg # Probes (Aedes aegypti [2]; 7% in isopropanol): 11 | Avg % Repellency (Aedes aegypti [2]; 7% in isopropanol): 74.9%

dihydrojasmolactone
Avg # Probes (Aedes aegypti [2]; 7% in isopropanol): 0 | Avg % Repellency (Aedes aegypti [2]; 7% in isopropanol): 100%

farnesyl cyclopentanol
Avg # Probes (Aedes aegypti [2]; 7% in isopropanol): 16.2 | Avg % Repellency (Aedes aegypti [2]; 7% in isopropanol): 67.8%
